This note sets out measurements from patent publication US5387710A, “Ethanolamine derivatives having sympathomimetic and anti-pollakiuria activities” (Fujisawa Pharmaceutical Co., Ltd., priority 1992, dated 1995).

Where a name gives a salt, the structure may show the parent alone.

Test [1] has as its system isolated non-pregnant rat uterus. Briefly: Effect on isolated non-pregnant rat uterus (spontaneous contractions, organ bath). The class given is cell-based. To be noted: 20 min, isolated uterine horn strip of estradiol-treated female SD rats, Locke solution 37° C., observed over 20 minutes. The protocol: Effect on isolated non-pregnant rat uterus:
Female SD rats (150~180 g) were used. 48 and 24 hours prior to use, rats were given estradiol (ovahormon benzoat: Trademark, Teikoku Hormone Mfg. Co., Ltd.) subcutaneously at a dose of 40 μg/rat to induce oestrus. The animals were killed and uterine horns were removed. Each strip was placed in an organ bath containing 25 ml Locke solution aerating with 95% O2, 5% CO2 at 37° C. under 1 g tension. Contractions were recorded isometrically. After the spontaneous contractions were of a uniform size, test compound was added to organ bath. The motility was observed over a 20 minutes period. Effect of test compound was calculated by comparing contractions before and after test compound.

Test [2] deals with isolated rat distal colon. Briefly: Effect on isolated rat distal colon (spontaneous contractions, organ bath). The class given is cell-based. To be noted: 0.5 h, isolated distal colon strip of male SD rats, Tyrode solution 37° C., observed over 30 minutes. The protocol:
Effect on isolated rat distal colon:
Male SD rats (180~230 g) were used. Animals were fasted for 24 hours prior to experiment. Distal colon was removed immediately after sacrifice and placed in an organ bath containing 25 ml Tyrode solution aerating with 95% O2, 5% CO2 at 37° C. The strip was mounted under 0.5 g tension and spontaneous contractions were recorded isometrically. After the mobility was of a uniform size, test compound was added to an organ bath and the contractions were observed over a 30 minutes period. Effect of test compound was calculated by comparing contractions before and after test compound.

For orientation: IC50 means the concentration at which inhibition is half-maximal. Low readings indicate inhibition by little substance, high ones a need for much substance. As to `CCOC(=O)COc1ccc2c(c1)C[C@H](NC[C@H](O)c1cccc(Cl)c1)CCC2` [3-2), (1R,6'R)-2-[(3-Ethoxycarbonylmethoxy-6,7,8,9-tetrahydro-5H-benzocyclohepten-6-yl)amino]-1-(3-chlorophenyl)ethanol], the half-inhibitory concentration (IC50) turned out to be 240 nM in test [1] and 0.66 nM in test [2].
For the compound `CCOC(=O)COc1ccc2c(c1)CC(NC[C@H](O)c1cccc(Cl)c1)CCC2` (mixture of isomers) [Example 1, (1R,6'R)- and (1R,6'S)-2-[(3-ethoxycarbonyl-methoxy-6,7,8,9-tetrahydro-5H-benzocyclohepten-6-yl)amino]-1-(3-chlorophenyl)ethanol hydrochloride], the IC50 in test [1] was found to be 200 nM; in test [2] it was 0.68 nM.
For the compound `CCOC(=O)COc1ccc2c(c1)C[C@@H](NC[C@H](O)c1cccc(Cl)c1)CCC2` [2-3), (1R,6'S)-2-[(3-Ethoxycarbonylmethoxy-6,7,8,9-tetrahydro-5H-benzocyclohepten-6-yl)amino]-1-(3-chlorophenyl)ethanol hydrochloride], the IC50 came to 440 nM in test [1] and 0.84 nM in test [2].
